Species on record: Rattus norvegicus
Assay: Open TG-GATES - Regimen: Daily Repeat
Type: toxicity, organism-based, Sprague-Dawley
Set-up: regimen Daily Repeat, gender Male, age 6 weeks
Details: in vivo, po, 200 mg/kg, route gavage, dose level High; for APTT / Bas / Eos / Fbg / Hb / Ht / Lym / MCH / MCHC / MCV / Mono / Neu / PT / Plat / RBC / Ret / WBC: tissue Blood; for KIDNEY_L / KIDNEY_R / KIDNEY_TOTAL: tissue Kidney; for LIVER: tissue Liver; for A/G / ALP / ALT / AST / BUN / CRE / Ca / Cl / DBIL / GLC / IP / K / LDH / Na / PL / RALB / TBIL / TC / TG / TP / gamma-GTP: tissue Plasma

CCc1oc2ccccc2c1C(=O)c1cc(Br)c(O)c(Br)c1 [BENZBROMARONE]
TERMINAL_BW (72 h, time 3 day): 217 g
APTT (72 h, time 3 day): 22.6 s
Bas (72 h, time 3 day): 0%
Eos (72 h, time 3 day): 1.2%
Fbg (72 h, time 3 day): 211 mg/dL
Hb (72 h, time 3 day): 14 g/dL
Ht (72 h, time 3 day): 41.9%
Lym (72 h, time 3 day): 80%
MCH (72 h, time 3 day): 21.9 pg
MCHC (72 h, time 3 day): 33.5%
MCV (72 h, time 3 day): 65.5 fL
Mono (72 h, time 3 day): 5%
Neu (72 h, time 3 day): 14.2%
PT (72 h, time 3 day): 14.6 s
Plat (72 h, time 3 day): 104.6 x10_4/uL
RBC (72 h, time 3 day): 640.8 x10_4/ul
Ret (72 h, time 3 day): 5.7%
WBC (72 h, time 3 day): 124.5 x10_2/uL
KIDNEY_L (72 h, time 3 day): 1 g
KIDNEY_R (72 h, time 3 day): 1 g
KIDNEY_TOTAL (72 h, time 3 day): 2 g
LIVER (72 h, time 3 day): 15.3 g
A/G (72 h, time 3 day): 2.6
ALP (72 h, time 3 day): 1041.8 IU/L
ALT (72 h, time 3 day): 45.5 IU/L
AST (72 h, time 3 day): 69.2 IU/L
BUN (72 h, time 3 day): 17 mg/dL
CRE (72 h, time 3 day): 0.7 mg/dL
Ca (72 h, time 3 day): 10 mg/dL
Cl (72 h, time 3 day): 107.9 meq/L
DBIL (72 h, time 3 day): 0.025 mg/dL
GLC (72 h, time 3 day): 167.2 mg/dL
IP (72 h, time 3 day): 6.7 mg/dL
K (72 h, time 3 day): 4.4 meq/L
LDH (72 h, time 3 day): 195 IU/L
Na (72 h, time 3 day): 141.3 meq/L
PL (72 h, time 3 day): 129.2 mg/dL
RALB (72 h, time 3 day): 4.1 g/dL
TBIL (72 h, time 3 day): 0.3 mg/dL
TC (72 h, time 3 day): 73.2 mg/dL
TG (72 h, time 3 day): 52.8 mg/dL
TP (72 h, time 3 day): 5.7 g/dL
gamma-GTP (72 h, time 3 day): 1 IU/L
TERMINAL_BW ([…], time 7 day): 254.9 g
TERMINAL_BW ([…], time 14 day): 307.7 g
TERMINAL_BW ([…], time 28 day): 357.4 g
APTT ([…], time 7 day): 18.9 s
Bas ([…], time 7 day): 0%
Eos ([…], time 7 day): 1.5%
Fbg ([…], time 7 day): 238.5 mg/dL
Hb ([…], time 7 day): 14.4 g/dL
Ht ([…], time 7 day): 42.8%
Lym ([…], time 7 day): 75.5%
MCH ([…], time 7 day): 21.6 pg
MCHC ([…], time 7 day): 33.6%
MCV ([…], time 7 day): 64.1 fL
Mono ([…], time 7 day): 7%
Neu ([…], time 7 day): 16.2%
PT ([…], time 7 day): 12.2 s
Plat ([…], time 7 day): 113.7 x10_4/uL
RBC ([…], time 7 day): 668.5 x10_4/ul
Ret ([…], time 7 day): 5.2%
WBC ([…], time 7 day): 92.8 x10_2/uL
APTT ([…], time 14 day): 18.5 s
Bas ([…], time 14 day): 0%
Eos ([…], time 14 day): 1%
Fbg ([…], time 14 day): 224.4 mg/dL
Hb ([…], time 14 day): 14.3 g/dL
Ht ([…], time 14 day): 42.7%
Lym ([…], time 14 day): 73.6%
MCH ([…], time 14 day): 20.6 pg
MCHC ([…], time 14 day): 33.4%
MCV ([…], time 14 day): 61.6 fL
Mono ([…], time 14 day): 6.2%
Neu ([…], time 14 day): 19.8%
PT ([…], time 14 day): 12.5 s
Plat ([…], time 14 day): 99.2 x10_4/uL
RBC ([…], time 14 day): 694 x10_4/ul
Ret ([…], time 14 day): 4.5%
WBC ([…], time 14 day): 138 x10_2/uL
APTT ([…], time 28 day): 17.9 s
Bas ([…], time 28 day): 0%
Eos ([…], time 28 day): 1.5%
Fbg ([…], time 28 day): 204 mg/dL
Hb ([…], time 28 day): 15 g/dL
Ht ([…], time 28 day): 44.7%
Lym ([…], time 28 day): 79.2%
MCH ([…], time 28 day): 19.1 pg
MCHC ([…], time 28 day): 33.5%
MCV ([…], time 28 day): 57.1 fL
Mono ([…], time 28 day): 5.8%
Neu ([…], time 28 day): 14.2%
PT ([…], time 28 day): 12.5 s
Plat ([…], time 28 day): 99.8 x10_4/uL
RBC ([…], time 28 day): 783.2 x10_4/ul
Ret ([…], time 28 day): 2.7%
WBC ([…], time 28 day): 130.6 x10_2/uL
KIDNEY_L ([…], time 7 day): 1.1 g
KIDNEY_R ([…], time 7 day): 1.1 g
KIDNEY_TOTAL ([…], time 7 day): 2.1 g
KIDNEY_L ([…], time 14 day): 1.2 g
KIDNEY_R ([…], time 14 day): 1.3 g
KIDNEY_TOTAL ([…], time 14 day): 2.5 g
KIDNEY_L ([…], time 28 day): 1.3 g
KIDNEY_R ([…], time 28 day): 1.4 g
KIDNEY_TOTAL ([…], time 28 day): 2.8 g
LIVER ([…], time 7 day): 18.9 g
LIVER ([…], time 14 day): 22.3 g
LIVER ([…], time 28 day): 22.9 g
A/G ([…], time 7 day): 2.6
ALP ([…], time 7 day): 853.5 IU/L
ALT ([…], time 7 day): 34.2 IU/L
AST ([…], time 7 day): 61.2 IU/L
BUN ([…], time 7 day): 22 mg/dL
CRE ([…], time 7 day): 0.6 mg/dL
Ca ([…], time 7 day): 10.5 mg/dL
Cl ([…], time 7 day): 106.8 meq/L
DBIL ([…], time 7 day): 0.0225 mg/dL
GLC ([…], time 7 day): 190 mg/dL
IP ([…], time 7 day): 8.1 mg/dL
K ([…], time 7 day): 4.5 meq/L
LDH ([…], time 7 day): 201.5 IU/L
Na ([…], time 7 day): 140.7 meq/L
PL ([…], time 7 day): 157.5 mg/dL
RALB ([…], time 7 day): 4.7 g/dL
TBIL ([…], time 7 day): 0.2 mg/dL
TC ([…], time 7 day): 100.8 mg/dL
TG ([…], time 7 day): 35.8 mg/dL
TP ([…], time 7 day): 6.5 g/dL
gamma-GTP ([…], time 7 day): 1 IU/L
A/G ([…], time 14 day): 2.3
ALP ([…], time 14 day): 1092 IU/L
ALT ([…], time 14 day): 36.2 IU/L
AST ([…], time 14 day): 63.6 IU/L
BUN ([…], time 14 day): 21 mg/dL
CRE ([…], time 14 day): 0.6 mg/dL
Ca ([…], time 14 day): 10.4 mg/dL
Cl ([…], time 14 day): 107.4 meq/L
DBIL ([…], time 14 day): 0.022 mg/dL
GLC ([…], time 14 day): 186 mg/dL
IP ([…], time 14 day): 7.4 mg/dL
K ([…], time 14 day): 4.3 meq/L
LDH ([…], time 14 day): 163.8 IU/L
Na ([…], time 14 day): 141.7 meq/L
PL ([…], time 14 day): 144.2 mg/dL
RALB ([…], time 14 day): 4.4 g/dL
TBIL ([…], time 14 day): 0.3 mg/dL
TC ([…], time 14 day): 87.4 mg/dL
TG ([…], time 14 day): 36.6 mg/dL
TP ([…], time 14 day): 6.3 g/dL
gamma-GTP ([…], time 14 day): 1 IU/L
A/G ([…], time 28 day): 2.2
ALP ([…], time 28 day): 795 IU/L
ALT ([…], time 28 day): 42.5 IU/L
AST ([…], time 28 day): 64.5 IU/L
BUN ([…], time 28 day): 21 mg/dL
CRE ([…], time 28 day): 0.5 mg/dL
Ca ([…], time 28 day): 9.6 mg/dL
Cl ([…], time 28 day): 108.2 meq/L
DBIL ([…], time 28 day): 0.02 mg/dL
GLC ([…], time 28 day): 178.2 mg/dL
IP ([…], time 28 day): 7 mg/dL
K ([…], time 28 day): 4 meq/L
LDH ([…], time 28 day): 108.2 IU/L
Na ([…], time 28 day): 141.9 meq/L
PL ([…], time 28 day): 120 mg/dL
RALB ([…], time 28 day): 4 g/dL
TBIL ([…], time 28 day): 0.3 mg/dL
TC ([…], time 28 day): 69.5 mg/dL
TG ([…], time 28 day): 34.5 mg/dL
TP ([…], time 28 day): 5.9 g/dL
gamma-GTP ([…], time 28 day): 1.2 IU/L
